Patent publication US9994577B2, “Azepanyl-derivatives and pharmaceutical compositions comprising the same with antiparasitic activity” (Merck Patent GmbH, priority 2014, dated 2018)

tested on: P. falciparum NF54; test: P. falciparum growth assay ([3H]hypoxanthine incorporation); assay type: cell-based; conditions: Plasmodium falciparum, [3H]-hypoxanthine incorporation at 72 h, read-out: EC50 (nM), concentration that inhibits by 50% the incorporation of [3H]-hypoxanthine
Protocol: P. falciparum strain NF54 was obtained from the Research and Reference Reagent Resource Center (MR4) (Manassas, Va.). The two strains were maintained in vitro by a modification of the method of Trager and Jensen. Cultures were maintained in A positive (A+) human erythrocytes suspended at 5% hematocrit in complete medium. 5 g albumax II (Gibco-Invitrogen, Cat No#11021037), 2.5 mg gentamicin (Sigma Aldrich), 25 mM HEPES (Invitrogen), 5 mg hypoxanthine (Sigma), and 1 L of RPMI 1640 (Invitrogen, Cat No#11875085). Cultures were grown in 100 mm petri-dishes (BD Falcon) at a volume of 15 mL and were kept in a standard gas environment of 4% CO2 and 3% O2 at temperature 37° C. in a tri-gas incubator (Cat#3131, Thermo Scientific Forma Series II Water Jacketed). Parasite growth and morphology were observed daily using thin smears at 100× (oil immersion) magnification following staining with Geimsa stain. […]
Parasite growth was detected in assay by the traditional [3H]hypoxanthine incorporation assay as previously described by Desjardins and colleagues (Antimicrob. Agents Chemother., 16(6), 710, 1979). To perform the [3H]hypoxanthine incorporation assay, the new antimalarial agents were serially diluted 1:1 into hypoxanthine-free complete medium to a final volume of 100 μL (final antimalarial agent concentration range, 10,000 nM to 4.8 nM may change in special case) in 96 well sterile cell culture plates. […] All cultures used in the study are albumax II adopted. The microtiter plates were incubated in chamber in a standard gas environment at 37° C. for 72 h. After 48 h of incubation and prior to addition of 50 μL (0.5 μCi/well) 3H-Hypoxanthine (specific activity, 20 Ci/mmol, Conc. 1.0 mCi/ml; American Radiolabeled Chemicals, Inc., St. Louis, Mo.), culture growth was assessed by making the smears that ensures the culture has grown and assay plate is further incubated for 24 h.
Following the incubation period, the plates were harvested with a FilterMate cell harvester (Perkin Elmer) onto unifilter-96 GF/B plates, washed with distilled water to remove excess radiochemical and plates were kept for drying 37° C. overnight or 60° C. for 1 h. 50 μL of Microscint scintillation cocktail (Microscint-High Efficiency LSC-Cocktail; Perkin Elmer) added in the unifilter-96 GF/B plates and kept for 15-20 min. The plates were counted in a Top Count NXT microplate scintillation and luminescence counter (Perkin Elmer). The mean values for [3H]hypoxanthine incorporation in parasitized control and non-parasitized control erythrocytes were calculated.

| Compound | EC50 [nM] |
| --- | --- |
| CS(=O)(=O)c1c(C(F)(F)F)ccc2c1c1cc(C(F)(F)F)ccc1n2C1CCCNC[C@@H]1O (mixture of isomers) [6 (mixture of isomers), (3R,4R)-4-[4-methylsulfonyl-3,6-bis(trifluoromethyl)carbazol-9-yl]azepan-3-ol] | 45.9 |
| O[C@H]1CNCCCC1N1c2ccc(Cl)cc2Oc2cc(Cl)ccc21 (mixture of isomers) [10 (mixture of isomers), (3R,4R)-4-(3,7-dichloro-10H-phenoxazin-10-yl)azepan-3-ol] | 21 |
| O[C@H]1CNCCC[C@@H]1n1c2ccc(C(F)(F)F)cc2c2cc(C(F)(F)F)cnc21 (racemic) [Compound 14 (i), (3R,4R)-4-[3,6-bis(trifluoromethyl)pyrido[2,3-b]indol-9-yl]azepan-3-ol] | 16.6 |
| O[C@@H]1CNCCC[C@H]1n1c2ccc(Cl)cc2c2cc(Cl)ccc21 (stereo in doubt) [Compound 2, (3R,4R)-4-(3,6-dichloro-9H-carbazol-9-yl)azepan-3-ol] | 36.4 |
| COc1cc2c(cc1C(F)(F)F)c1nc(C(F)(F)F)ccc1n2[C@@H]1CCCNC[C@H]1O [Compound 17, (3R,4R)-4-(7-methoxy-2,8-bis(trifluoromethyl)-5H-pyrido[3,2-b]indol-5-yl)azepan-3-ol] | 12.8 |
| COc1cc2c(cc1C(F)(F)F)c1nc(C(F)(F)F)ccc1n2[C@H]1CCCNC[C@@H]1O [Compound 18, (3S,4S)-4-(7-methoxy-2,8-bis(trifluoromethyl)-5H-pyrido[3,2-b]indol-5-yl)azepan-3-ol] | 5.4 |
| O[C@@H]1CNCCC[C@H]1n1c2ccc(Cl)cc2c2nc(C(F)(F)F)ncc21 [Compound 21, (3R,4R)-4-(8-chloro-2-(trifluoromethyl)-5H-pyrimido[5,4-b]indol-5-yl)azepan-3-ol] | 41.7 |
| O[C@H]1CNCCC[C@@H]1n1c2ccc(C(F)(F)F)nc2c2cc(C(F)(F)F)cnc21 [Compound 24, (3S,4S)-4-(2,8-bis(trifluoromethyl)-5H-pyrrolo[2,3-b:4,5-b′]dipyridin-5-yl)azepan-3-ol] | 2.3 |
| O=C1CC[C@@H](n2c3ccc(Cl)cc3c3cc(Cl)ccc32)[C@H](O)CN1 [Compound 27, (5R,6R)-5-(3,6-dichloro-9H-carbazol-9-yl)-6-hydroxyazepan-2-one] | 28.2 |

Other lines, results leading:

| EC50 [nM] | Compound |
| --- | --- |
| 32.9 | COc1cc(Cl)cc2c3cc(Cl)ccc3n([C@H]3CCCNC[C@@H]3O)c12 (racemic) [8 (racemic), (3S,4S)-4-(3,6-dichloro-1-methoxy-9H-carbazol-9-yl)azepan-3-ol] |
| 18 | COc1cc2c(cc1Cl)c1cc(Cl)ccc1n2[C@H]1CCCNC[C@@H]1O (racemic) [Compound 9, (3R,4R)-4-(3,6-dichloro-2-methoxy-9H-carbazol-9-yl)azepan-3-ol] |
| 2.55 | O[C@@H]1CNCCC[C@H]1n1c2ccc(C(F)(F)F)cc2c2cc(C(F)(F)F)ccc21 [Compound 3, (3R,4R)-4-[3,6-bis(trifluoromethyl)-9H-carbazol-9-yl]azepan-3-ol] |
| 24 | COc1cc(Cl)cc2c3nc(C(F)(F)F)ccc3n([C@@H]3CCCNC[C@H]3O)c12 [Compound 19, (3R,4R)-4-(8-chloro-6-methoxy-2-(trifluoromethyl)-5H-pyrido[3,2-b]indol-5-yl)azepan-3-ol] |
| 13.1 | COc1cc(Cl)cc2c3nc(C(F)(F)F)ccc3n([C@H]3CCCNC[C@@H]3O)c12 [Compound 20, (3S,4S)-4-(8-chloro-6-methoxy-2-(trifluoromethyl)-5H-pyrido[3,2-b]indol-5-yl)azepan-3-ol] |
| 46.1 | O[C@H]1CNCCC[C@@H]1n1c2ccc(Cl)cc2c2nc(C(F)(F)F)ncc21 [Compound 22, (3S,4S)-4-(8-chloro-2-(trifluoromethyl)-5H-pyrimido[5,4-b]indol-5-yl)azepan-3-ol] |
| 11.2 | O[C@@H]1CNCCC[C@H]1n1c2ccc(C(F)(F)F)nc2c2cc(C(F)(F)F)cnc21 [Compound 23, (3R,4R)-4-(2,8-bis(trifluoromethyl)-5H-pyrrolo[2,3-b:4,5-b′]dipyridin-5-yl)azepan-3-ol] |

tested on: P falciparum PF3D/0087/N9; test: In vivo efficacy in a murine model of P. falciparum-malaria (4-day test); set-up: species or system Plasmodium falciparum; conditions: NODscidIL2Rynull mice engrafted with human erythrocytes
Excerpt: In vivo efficacy against P falciparum PF3D/0087/N9 for the compounds no. 2 and 3 as described in Examples 16 and 17.
The in vivo activity in a murine model of P. falciparum-malaria was adapted from the protocol as provided by Angulo-Barturen I, Jimènez-Diaz M B, Mulet T, Rullas J, Herreros E, et al. (2008) PLoS ONE 3(5): e2252. doi:10.1371/journal.pone.0002252.
This study measures the therapeutic efficacy of compounds no. 2 and 3 against Plasmodium falciparum growing in peripheral blood of NODscidIL2Rynull mice engrafted with human erythrocytes. The antimalarial efficacy of compounds no. 2 and 3 were assessed using a “4-day test”.
The parameters of efficacy estimated in the study are a) the dose of compounds no. 2 and 3 in mg·kg^−1 that reduces parasitemia at day 7 after infection by 90% with respect to vehicle-treated mice (parameter denoted as ED90)

| Compound | ED90, dose that reduces parasitemia at day 7 after infection by 90% with respect to vehicle-treated mice [mg/kg] |
| --- | --- |
| O[C@@H]1CNCCC[C@H]1n1c2ccc(Cl)cc2c2cc(Cl)ccc21 (stereo in doubt) [Compound 2, (3R,4R)-4-(3,6-dichloro-9H-carbazol-9-yl)azepan-3-ol] | < 10 |
| O[C@@H]1CNCCC[C@H]1n1c2ccc(C(F)(F)F)cc2c2cc(C(F)(F)F)ccc21 [Compound 3, (3R,4R)-4-[3,6-bis(trifluoromethyl)-9H-carbazol-9-yl]azepan-3-ol] | < 3 |
